In US20110151020A1, “ACTIVE SUBSTANCE COMBINATION WITH GEMCITABINE FOR THE TREATMENT OF EPITHELIAL CANCER” (priority 2008, published 2011):

Assays:
[1] = tested on: L3.6pl orthotopic pancreatic tumours; assay: In vivo treatment of established orthotopic pancreatic cancer (Gemcitabine, Cyclopamine, Rapamycin)
Method: Gemcitabine was administered twice a week by intraperitoneal injections at 125 mg/kg BW.
In order to test the identified combination therapy in a clinically most relevant setting, a model of established orthotopic pancreatic cancer was used in this experiment. […] The detailed experimental setup is depicted in FIG. 21A. […] Gemcitabine was given for a prolonged period of 11 weeks in analogy to clinical practice. Tumour volume was non-invasively measured on day 42 using a caliper (FIG. 21B), and was controlled via MR imaging on day 49 (FIG. 21C).
(§1) Animals and Orthotopic Implantation of Tumour Cells. Single-cell suspensions were orthotopically implanted into the pancreas of female NMRI nu/nu mice (Janvier, Le Genest-Saint-Isle, France) (Hermann et al., 2007, supra). Size and weight of the pancreatic tumours were monitored.
In vivo treatment of established pancreatic cancers. Seven days after orthotopic implantation of L3.6pl cells, mice were randomized to the respective treatment groups. Gemcitabine was administered biweekly (125 mg/kg i.p.). […] Rapamycin (5 mg/kg/day; Wyeth, Madison, N.J.) was orally administered via the drinking water as reported previously (Huber et al., 2007, supra).

[2] = tested on: primary human pancreatic cancer tissue; assay: In vivo triple combination treatment of implanted patient pancreatic tumor tissue; design: species or system mice; conditions: treatment from day 21; assessed up to 100 days
Method: Tumor tissue from patient with pancreatic cancer was implanted into immunocompromised mice. Treatment was started on day 21 after implantation. Mice were randomized to gemcitabine alone or combination therapy. Tumor growth was assessed up to 100 days.

[3] = tested on: pretreated Qtracker-labeled pancreatic cancer cells; assay: Systemic infusion assay of pretreated cells (lung metastasis); format: in vivo, mice; conditions: cells pretreated in vitro, systemically infused; lungs scanned
Source text: Recently, the inventors have shown that the chemokine receptor CXCR4 and its specific lig- and Stromal-Derived Factor-1 (SDF-1) plays a pivotal role in metastasis of pancreatic CSC (see Hermann et al., 2007, supra). […] Pretreated and Qtracker-labeled cells were systemically infused. Seeded cells were tracked using near infrared scanning of the lungs as the primary target organ. Positive signals were confirmed by histological analysis.
(§2) In vitro treatment of pancreatic cancer cells. […] For the evaluation of the in vivo tumorigenicity, […] L3.6pl cells were pretreated with the respective regimen and the remaining viable cells were orthotopically implanted into the pancreas of nude mice and evaluated on day 35. For the systemic infusion assay, cells were labelled with the Qtracker 800 labelling kit (Invitrogen) according to the manufacturer's instructions, and 5×10^5 cells were injected intravenously into mice. After 4 weeks, explanted lungs were scanned for metastases with a near-infrared imaging platform (Odyssey, Li-cor, Lincoln, Nebr.). Positive signals were verified by histology (H&E staining).

[4] = tested on: L3.6pl pancreatic cancer cells; assay: Tumorigenicity after in vitro pre-treatment and orthotopic implantation; format: in vivo, mice
Method: After 96 hours of pretreatment, the remaining viable cells were orthotopically implanted into the pancreas of mice, which received no further treatment in vivo.
Cultivated pancreatic cancer cells were exposed to either Gemcitabine alone representing clinical standard therapy, SB431542 alone, or a combination of Gemcitabine and SB431542 in the above given respective concentrations. After 96 hours of pretreatment, the remaining viable cells were orthotopically implanted into the pancreas of mice, which received no further treatment in vivo.
A prerequisite of CSC is their ability to form tumours in secondary recipients. Due to the limited number of cancer (stem) cells that can be obtained from primary tissues, it is virtually impossible to reproducibly perform in vivo treatment experiments with fresh patient-derived cells. Therefore, all subsequent in vivo experiments were performed with the established L3.6pl pancreatic cancer cells. The design of the experiment is illustrated in FIG. 20A. […] After 4 days of pretreatment, the surviving cells were orthotopically implanted into the pancreas, which received no further in vivo treatment. Tumorigenicity was first determined by PET scans on day 30 (FIGS. 20B, 20C; left panel) and by final macroscopic and microscopic histological evaluation on day 35 (FIGS. 20B, 20C; right panel).
as §1, §2

[5] = tested on: CD133+ CXCR4+ CSC subpopulation; assay: Flow cytometry of migrating CSC; format: cell-based, human
[6] = tested on: side population (SP) cells; assay: Side population (Hoechst 33342 exclusion); format: cell-based, human
Method: (§3) First, pancreatic CSC were clonally expanded as CSC-enriched spheres (FIGS. 18C1-18C5). Floating spheres were treated in ultra low adhesion 6-well plates. After completion of the treatment, five randomly selected high-power fields were analyzed.

pancreatic CSC spheres = assay: CSC-enriched tumour sphere assay; format: cell-based, human; conditions: ultra low adhesion 6-well plates
Method: as §3
Human pancreatic cancer cell line. The highly metastatic human pancreatic cell line L3.6pl was maintained in DMEM medium (Invitrogen, Karlsruhe, Germany) with 12% Fetal Calf Serum (Biochrom, Berlin, Germany), Glutamax (Invitrogen), non-essential amino acids, and vitamins (all from PAN, Aidenbach, Germany) (Hermann et al., 2007, supra). Cultures were kept no longer than 4 weeks after recovery from frozen stocks. CSC spheres were cultured in DMEM-F12 supplemented with B27 (Gibco, Karlsruhe, Germany) and FGF-2 (PeproTech EC, London, United Kingdom) (Hermann et al., 2007, supra).

[7] = tested on: primary human pancreatic cancer cells; assay: CSC content by flow cytometry in primary pancreatic cancer cells from patients; format: cell-based; conditions: freshly isolated primary pancreatic cancer cells
Method: The findings from Examples 1.1 and 1.2 in tumour cell lines were reproduced in primary patient tissue with viability tested with propidium iodide (FIGS. 4A-4D).
The findings from Examples 2.1 in tumour cell lines were reproduced in fresh primary tumour cells from patients with pancreatic cancer with viability tested with propidium iodide (FIGS. 13A-13D). In vitro treatment with the combined therapy of 100 ng/ml Gemcitabine and 5 μM SB431542 led to the elimination of CD 133^+ cancer stem cells.
Primary human pancreatic cancer cells. Human pancreatic cancers were obtained with written informed consent from all patients. Tissue fragments were minced with scissors into small (1-2 mm^3) fragments. Enzymatic digestion was performed using a mixture of DMEM medium and collagenase (Stem Cell Technologies, Vancouver, Canada) for 90 min at 37° C. (Hermann et al., 2007, supra).
Cytometry. Pancreatic CSC were identified by CD133/1-APC or CD133-PE (Miltenyi, Bergisch-Gladbach, Germany) (Hermann et al., 2007, supra). Side population experiments were performed as described by Goodell et al. (1996) (see Goodell et al., 1996, J Exp Med 183, 1797-1806) and cells were identified by exclusion of the vital dye Hoechst 33342. […]

Nc1ccn(C2OC(CO)C(O)C2(F)F)c(=O)n1 (centres unmarked) [Gemcitabine, 4-amino-1-[3,3-difluoro-4-hydroxy-5-(hydroxymethyl)tetrahydrofuran-2-yl]-1H-pyrimidin-2-one]
prolongation of median survival ([1]; Gemcitabine 125 mg/kg i.p. twice a week): 22 days | survival ([1]; Gemcitabine vs control, CRG vs Gemcitabine alone): significantly prolonged | tumour size ([1]; compared to control): significantly smaller compared to control | tumour volume on day 42 (caliper) ([1]; day 42): considerable tumor size | tumour volume via MR imaging on day 49 ([1]; day 49): considerable tumor size | latest day of survival ([1]; mouse, in vivo): ≤ 71 days | median survival ([1]; mouse, in vivo): 57 days | tumour take rate ([1]; mouse, in vivo): 100% | CD133+ cells in the residual tumour tissue ([1]; orthotopic mouse model of xenotransplanted human pancreatic cancer): significant enrichment | tumor growth [2]: virtually unrestricted growth | metastatic activity in vivo [3]: all mice receiving Gemcitabine-pretreated cells showed evidence for metastasis | tumour take rate / tumorigenicity ([4]; 4 days of pretreatment, PET day 30, histology day 35): did not generate any effect | tumorigenicity after in vitro pre-treatment ([4]; 96 hours pretreatment, 100 ng/ml Gemcitabine, 5 μM SB431542): close to no effect | CD133+ CXCR4+ migrating CSC [5]: enriches | side population (SP) cells [6]: unaffected | tumour spheres / CD133+ cells in CSC-enriched spheres (pancreatic CSC spheres): marked relative increase of CD133^+ cells | CSC fraction (CD133+ and CD24+CD44+EpCAM+ populations) [7]: tended to relatively enrich
